From ChEMBL document CHEMBL5046315, “CRCM5484: A BET-BDII Selective Compound with Differential Anti-leukemic Drug Modulation” (J Med Chem, 2022)
Activity calls are given as the source filed them. The rule behind the calls is not given here.

Experiments:
[1] = target: T1, Bromodomain-containing protein 3 (Homo sapiens, UniProt Q15059); assay: Inhibition of BRD3-BD2 (unknown origin) incubated for 6 hrs by HTRF method
Target sequence in this assay (Q15059 whole entry): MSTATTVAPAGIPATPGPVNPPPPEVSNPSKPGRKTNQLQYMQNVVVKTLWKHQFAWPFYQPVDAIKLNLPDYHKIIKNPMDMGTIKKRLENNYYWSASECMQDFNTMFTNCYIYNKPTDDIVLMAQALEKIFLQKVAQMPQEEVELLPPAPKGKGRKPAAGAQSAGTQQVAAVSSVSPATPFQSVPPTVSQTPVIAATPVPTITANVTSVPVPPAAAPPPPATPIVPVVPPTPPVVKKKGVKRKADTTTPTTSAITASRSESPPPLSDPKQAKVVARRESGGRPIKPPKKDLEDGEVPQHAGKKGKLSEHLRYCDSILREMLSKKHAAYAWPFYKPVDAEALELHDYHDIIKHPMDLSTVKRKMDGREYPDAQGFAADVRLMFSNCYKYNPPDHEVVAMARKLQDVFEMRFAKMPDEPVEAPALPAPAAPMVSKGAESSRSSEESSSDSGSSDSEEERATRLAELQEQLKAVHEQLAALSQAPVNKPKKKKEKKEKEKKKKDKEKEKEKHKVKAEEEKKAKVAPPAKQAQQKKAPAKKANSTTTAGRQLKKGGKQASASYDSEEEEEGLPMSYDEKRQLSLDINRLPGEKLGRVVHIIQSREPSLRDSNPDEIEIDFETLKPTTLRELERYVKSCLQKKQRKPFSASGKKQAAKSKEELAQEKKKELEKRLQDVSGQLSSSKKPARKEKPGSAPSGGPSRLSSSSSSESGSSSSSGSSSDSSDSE

[2] = target: Bromodomain-containing protein 2 (Homo sapiens, UniProt P25440); assay: Inhibition of BRD2-BD1 (unknown origin) incubated for 6 hrs by HTRF method
[3] = target: T1, Bromodomain-containing protein 3; assay: Inhibition of human partial length BRD3-BD2 (G306 to P416 residues) expressed in bacterial system at 1 uM by BROMOscan method relative to control
Target sequence in this assay (Q15059 2-726 limits assumed): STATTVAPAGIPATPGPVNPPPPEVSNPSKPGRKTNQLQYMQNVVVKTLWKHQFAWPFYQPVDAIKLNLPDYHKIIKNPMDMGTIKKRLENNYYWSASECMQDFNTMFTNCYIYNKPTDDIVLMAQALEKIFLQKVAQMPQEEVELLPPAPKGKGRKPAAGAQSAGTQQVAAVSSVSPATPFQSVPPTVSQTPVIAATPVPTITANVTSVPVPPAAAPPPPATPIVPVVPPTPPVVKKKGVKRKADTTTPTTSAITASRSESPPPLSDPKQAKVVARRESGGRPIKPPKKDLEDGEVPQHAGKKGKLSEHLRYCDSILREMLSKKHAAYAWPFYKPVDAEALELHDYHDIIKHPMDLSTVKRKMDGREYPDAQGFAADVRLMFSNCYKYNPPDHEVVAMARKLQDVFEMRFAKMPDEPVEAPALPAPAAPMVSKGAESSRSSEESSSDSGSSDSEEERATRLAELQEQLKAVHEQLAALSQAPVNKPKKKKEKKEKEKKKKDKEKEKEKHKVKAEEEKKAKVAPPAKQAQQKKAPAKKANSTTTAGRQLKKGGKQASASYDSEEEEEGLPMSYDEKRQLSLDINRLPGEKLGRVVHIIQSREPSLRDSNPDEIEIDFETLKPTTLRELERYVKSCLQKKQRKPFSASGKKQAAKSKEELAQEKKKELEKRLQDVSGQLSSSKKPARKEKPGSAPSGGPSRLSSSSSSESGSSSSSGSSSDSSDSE

[4] = system: CCRF-CEM; assay: Cytotoxicity against human CCRF-CEM cells assessed as reduction in cell viability incubated for 72 hrs; assay type: functional, cell-based
[5] = system: Acute myeloid leukemic cell; assay: Potentiation of birinapant-induced antileukemic activity against patient derived mouse xenografted acute myeloid leukemic cells assessed as cell viability at 2 uM measured after 72 to 144 hrs by Cell-titre glo luminescent assay; assay type: functional, cell-based; settings: Homo sapiens, time lower […], time upper 144.0 hrs
[6] = system: CCRF-CEM; assay: Potentiation of AG-221-induced antileukemic activity against human CCRF-CEM cells at 4.3 uM in presence of bone-marrow derived stromal cell-conditioned medium; assay type: functional, cell-based
[7] = system: CCRF-CEM; assay: Potentiation of everolimus-induced antileukemic activity against human CCRF-CEM cells at 4.3 uM in presence of bone-marrow derived stromal cell-conditioned medium; assay type: functional, cell-based
[8] = system: CCRF-CEM; assay: Potentiation of -mastinib -induced antileukemic activity against human CCRF-CEM cells at 4.3 uM in presence of bone-marrow derived stromal cell-conditioned medium; assay type: functional, cell-based
[9] = system: CCRF-CEM; assay: Potentiation of -nutlin 3-induced antileukemic activity against human CCRF-CEM cells at 4.3 uM in presence of bone-marrow derived stromal cell-conditioned medium; assay type: functional, cell-based
[10] = system: CCRF-CEM; assay: Potentiation of SGI-1776-induced antileukemic activity against human CCRF-CEM cells at 4.3 uM in presence of bone-marrow derived stromal cell-conditioned medium; assay type: functional, cell-based
[11] = system: CCRF-CEM; assay: Potentiation of trametinib-induced antileukemic activity against human CCRF-CEM cells at 4.3 uM in presence of bone-marrow derived stromal cell-conditioned medium; assay type: functional, cell-based
[12] = system: CCRF-CEM; assay: Potentiation of venetoclax-induced antileukemic activity against human CCRF-CEM cells at 4.3 uM in presence of bone-marrow derived stromal cell-conditioned medium; assay type: functional, cell-based
[13] = system: U-937; assay: Potentiation of decitabine-induced antileukemic activity against human U-937 cells at 4.3 uM in presence of bone-marrow derived stromal cell-conditioned medium; assay type: functional, cell-based
[14] = system: U-937; assay: Potentiation of metformin -induced antileukemic activity against human U-937 cells at 4.3 uM in presence of bone-marrow derived stromal cell-conditioned medium; assay type: functional, cell-based
[15] = system: U-937; assay: Potentiation of olaparid-induced antileukemic activity against human U-937 cells at 4.3 uM in presence of bone-marrow derived stromal cell-conditioned medium; assay type: functional, cell-based
[16] = system: U-937; assay: Potentiation of SGI-1027-induced antileukemic activity against human U-937 cells at 4.3 uM in presence of bone-marrow derived stromal cell-conditioned medium; assay type: functional, cell-based
[17] = system: U-937; assay: Potentiation of tipifarnib-induced antileukemic activity against human U-937 cells at 4.3 uM in presence of bone-marrow derived stromal cell-conditioned medium; assay type: functional, cell-based
[18] = system: U-937; assay: Potentiation of vermurafenib-induced antileukemic activity against human U-937 cells at 4.3 uM in presence of bone-marrow derived stromal cell-conditioned medium; assay type: functional, cell-based
[19] = system: MOLM-14; assay: Potentiation of carfilzomib-induced antileukemic activity against human MOLM-14 cells at 4.3 uM in presence of bone-marrow derived stromal cell-conditioned medium; assay type: functional, cell-based
[20] = system: MOLM-14; assay: Potentiation of idasanutlin-induced antileukemic activity against human MOLM-14 cells at 4.3 uM in presence of bone-marrow derived stromal cell-conditioned medium; assay type: functional, cell-based
[21] = system: MOLM-14; assay: Potentiation of seliciclib-induced antileukemic activity against human MOLM-14 cells at 4.3 uM in presence of bone-marrow derived stromal cell-conditioned medium; assay type: functional, cell-based
[22] = system: MOLM-14; assay: Potentiation of SGI-1027-induced antileukemic activity against human MOLM-14 cells at 4.3 uM in presence of bone-marrow derived stromal cell-conditioned medium; assay type: functional, cell-based
[23] = system: MOLM-14; assay: Potentiation of trametinib-induced antileukemic activity against human MOLM-14 cells at 4.3 uM in presence of bone-marrow derived stromal cell-conditioned medium; assay type: functional, cell-based

Bromodomain-containing protein 2, sequence (P25440 whole entry, the tested form may be a part): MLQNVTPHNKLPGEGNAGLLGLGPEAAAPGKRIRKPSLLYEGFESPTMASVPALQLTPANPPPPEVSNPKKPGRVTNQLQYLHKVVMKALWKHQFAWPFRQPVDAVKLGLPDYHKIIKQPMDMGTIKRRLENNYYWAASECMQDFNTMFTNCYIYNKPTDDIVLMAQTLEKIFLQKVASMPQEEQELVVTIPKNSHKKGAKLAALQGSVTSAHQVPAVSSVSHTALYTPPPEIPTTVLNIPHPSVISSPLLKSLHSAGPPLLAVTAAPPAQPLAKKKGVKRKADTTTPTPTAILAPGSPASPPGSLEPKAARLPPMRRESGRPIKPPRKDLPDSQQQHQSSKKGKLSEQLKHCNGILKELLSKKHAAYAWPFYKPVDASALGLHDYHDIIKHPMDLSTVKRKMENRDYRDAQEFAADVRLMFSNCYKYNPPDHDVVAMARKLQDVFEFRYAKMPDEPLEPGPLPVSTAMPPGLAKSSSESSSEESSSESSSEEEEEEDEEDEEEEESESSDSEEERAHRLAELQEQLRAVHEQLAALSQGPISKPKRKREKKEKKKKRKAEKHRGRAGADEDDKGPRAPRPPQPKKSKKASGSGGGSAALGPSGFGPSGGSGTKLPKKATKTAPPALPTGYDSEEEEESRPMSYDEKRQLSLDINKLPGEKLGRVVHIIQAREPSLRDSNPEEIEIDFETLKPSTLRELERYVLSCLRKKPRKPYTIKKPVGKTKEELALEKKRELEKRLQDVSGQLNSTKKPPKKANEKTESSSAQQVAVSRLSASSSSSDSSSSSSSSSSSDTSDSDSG

SMILES: CC(=O)N1CCc2c(sc3nc(SCC(=O)Nc4cccnc4C)n(Cc4ccco4)c(=O)c23)C1
- IC50 [1]: 0.02 µM
- IC50 [2]: 4.7 µM
- inhibition [3]: 36%
- EC50 [4]: > 5 µM
- Activity [5]: Active
- Activity [6]: inactive
- Activity [7]: inactive
- Activity [8]: inactive
- Activity [9]: inactive
- Activity [10]: inactive
- Activity [11]: inactive
- Activity [12]: inactive
- Activity [13]: inactive
- Activity [14]: inactive
- Activity [15]: inactive
- Activity [16]: inactive
- Activity [17]: inactive
- Activity [18]: inactive
- Activity [19]: inactive
- Activity [20]: inactive
- Activity [21]: inactive
- Activity [22]: inactive
- Activity [23]: inactive
